Measurements as given in article PMC6988309, “Preclinical efficacy for a novel tyrosine kinase inhibitor, ArQule 531 against acute myeloid leukemia” (Journal of Hematology & Oncology, 2020).
Values joined by “and” are separate entries in the source; they are usually repeats but may differ in a detail not shown here. Equal values may be shown once.

Key:
[1] = tested on: MOLM-13, MV4-11, and OCI-AML3 cell lines; assay: Annexin/PI apoptosis assay 72 h; type: cell-based, human; settings: increasing concentrations of ARQ 531 or 50 nM gilteritinib
Experimental: Cells were treated for 72 h then stained for 20 min in 1X Annexin Binding buffer (BD Biosciences, Franklin Lakes, NJ) containing Annexin V-FITC and Propidium Iodine (Leinco Technologies, Fenton, MO). Live and apoptotic cells were measured using FC 500 flow cytometer and analyzed on Kaluza software (Beckman Coulter, Pasadena, CA).

[2] = tested on: primary AML patient blasts; assay: Colony-Forming Unit-Granulocyte and Macrophage (CFU-GM) assay; type: cell-based, human; settings: 0.1 µM, colonies counted after 14 days
Experimental: Primary AML patient samples were treated and plated at 5000–10,000 cells in 1.1 ml methylcellulose supplemented with recombinant human stem cell factor, interleukin 3, granulocyte colony-stimulating factor, and granulocyte-macrophage colony-stimulating factor (MethoCult™, […] Technologies, Vancouver, Canada) per dish in duplicates. Colonies were counted after 14 days when using primary patient samples.
(§1) MTS proliferation assay using a human stroma co-culture assay. […] FLT3 wild-type (WT) samples (red) and FLT3-ITD (black). Colony-Forming Unit-Granulocyte and Macrophage (CFU-GM) assay. […] Number of colonies were counted after 14 days (c)

[3] = tested on: phosphorylated SYK (tyrosine 525/526); assay: Immunoblot of phospho-SYK Tyr525/526; type: cell-based, human; settings: MOLM-13, MV4-11, and OCI-AML3, 10-min treatment
Experimental: (§2) Cell lines were serum starved overnight followed by a 10-min treatment. Cells were washed in ice-cold PBS then lysed in 1X Cell Lysis Buffer (CST) supplemented with proteinase and phosphatase inhibitors cocktail (Roche). Pierce BCA Protein Assay was used to quantify the protein lysates (Thermo Fisher Scientific, Waltham, MA). For Immunoblotting, 15–25 μg of protein lysate was prepared in 2X or 4X Laemmeli’s sample buffer (Bio-Rad Laboratories, Hercules, CA) and heated for 5 min at 100 °C. Samples were separated on 8% sodium dodecyl sulfate polyacrylamide gel and transferred onto nitrocellulose membrane (Bio-Rad Laboratories, Hercules, CA). The membranes were blocked for 1 h in Blocker BLOTTO Blocking Buffer (Thermo Fisher Scientific, Waltham, MA) or 5% non-fat milk followed by overnight incubation at 4 °C with primary antibody followed by HRP-conjugated secondary antibodies and visualized with chemiluminescent Pierce ECL Substrate (Thermo Fisher Scientific, Waltham, MA) on X-ray films.
Fig. 3 ARQ 531 modulates AML pro-survival kinases. Immunoblot analysis for MOLM-13, MV4-11, and OCI-AML3 AML cell lines (representative of 2-3 independent blots). […] Twenty to 25 μg of total protein lysate was loaded per lane. GAPDH, HSP90, or β-Actin were used as loading controls. a, b Modulation of phosphorylated SFK and downstream targets in FLT3-ITD cell lines MOLM-13 and MV-11, respectively. c, d Modulation of phosphorylated SYK and BTK in all three cell lines

[4] = tested on: Ba/F3 FLT3-ITD pMIT SYK-TEL
Experimental: (§3) CellTiter 96 Aqueous MTS reagent (Promega, Madison, WI) was added to cells followed by a 3-h incubation at 37 °C, 5% CO2. The absorbance was measured at 490 nm using DTX 880 plate reader and the half maximal inhibitory concentration (IC50) was calculated using GraphPad Prism 7 (GraphPad Software, La Jolla, CA) and SAS/STAT software (SAS v9.4 for Windows, SAS Institute, Inc., Cary, NC).

[5] = tested on: primary AML patient blasts; assay: MTS proliferation assay, primary AML blasts co-cultured with HS5-GFP stroma cells, 96 h; type: cell-based, human; settings: HS5-GFP co-culture
From the text: For in vitro cytotoxicity experiments (Fig. 1b–d), repeated measures models were used to account for correlations among observations from the same experiment. The percentage of live cells was compared at each concentration with DMSO. […] Mixed effects models were used in experiments described in Additional file 1: Table S4 and Fig. 2c to account for correlations within a single patient. Outcome data were first log-transformed to stabilize variances and reduce skewness. For survival experiments (Figs. 5 and 6a), Kaplan-Meier curves were produced and group differences for Fig. 5 and assessed by the log-rank test and for Fig. 6a, p values have been adjusted for multiple comparisons using Holm’s procedure. p values from experiments with multiple endpoints were adjusted for multiple comparisons using either Holm’s procedure or Dunnett’s test (all comparisons against vehicle/DMSO).
as §1

[6] = tested on: Ba/F3 FLT3-ITD Parental
Experimental: as §3

[7] = tested on: MOLM-13; assay: MTS proliferation assay 72 h, MOLM-13; settings: MOLM-13, 1 µM, 72 hours MTS (ibrutinib 1 hour washout)
Experimental: A total of 5000–30,000 cells from the lines above were treated in a 96-well plate for 72 h. CellTiter 96 Aqueous MTS reagent (Promega, Madison, WI) was added to cells followed by a 3-h incubation at 37 °C, 5% CO2. The absorbance was measured at 490 nm using DTX 880 plate reader and the half maximal inhibitory concentration (IC50) was calculated using GraphPad Prism 7 (GraphPad Software, La Jolla, CA) and SAS/STAT software (SAS v9.4 for Windows, SAS Institute, Inc., Cary, NC). For the MOLM-13 resistant and the Ba/F3-FLT3-ITD/TKD cell lines, cells were treated for 72 h and cell viability was evaluated using MTT assay (Roche Diagnostics. Mannheim. Germany) according to the manufacturer’s instructions.

[8] = tested on: BTK phosphorylation; assay: Immunoblot of phospho-BTK; type: cell-based, human
Experimental: as §2, with “Cells” for “Cell lines were serum starved overnight followed by a 10-min treatment. Cells”
Immunoblot analysis for MOLM-13, MV4-11, and OCI-AML3 AML cell lines (representative of 2-3 independent blots). […] Twenty to 25 μg of total protein lysate was loaded per lane.

[9] = tested on: MOLM-13 disseminated AML xenograft; assay: MOLM-13 disseminated xenograft, ARQ + Ven combination study (NCG mice); type: in vivo; settings: 50 mg/kg ARQ 531 and/or 75 mg/kg venetoclax Q.D.P.O from 4 days post-engraftment until ERC; vehicle 25 days
Experimental: All experiments were conducted after approval of The Ohio State University Institutional Animal Care and Use Committee. Mice were randomized and enrolled for daily oral gavage (Q.D.P.O) treatment of vehicle or 50 mg/kg ARQ 531. Mice were treated until reaching early removal criteria (ERC) defined as 20% weight loss, lethargy, hind limb paralysis, moribund, anorexia, dehydration, hunched posture, severe diarrhea, breathing difficulties, or any abnormal neurological symptoms. […]
Fig. 7 BCL2 inhibition improves ARQ 531 in vivo activity. a Kaplan–Meier survival curve in the MOLM-13 xenograft after mice were treated with vehicle (N = 9) or 50 mg/kg ARQ 531 Q.D.P.O (N = 9) or 75 mg/kg venetoclax Q.D.P.O (N = 10) or 50 mg/kg ARQ 531 and 75 mg/kg venetoclax combination Q.D.P.O (N = 10) at 4 days post engraftment until ERC. b Noninvasive serial whole body bioluminescence imaging of ventral view to monitor leukemia progression and regression post treatment. Mice were injected with 150 mg/kg Firefly D-Luciferin for evaluation of tumor burden as determined by whole body bioluminescence imaging using IVIS imager

CCc1nc(C(N)=O)c(Nc2ccc(N3CCC(N4CCN(C)CC4)CC3)c(OC)c2)nc1NC1CCOCC1 [Gilteritinib, reference compound]
apoptosis / cytotoxicity (Annexin/PI) [1]: cytotoxic in the FLT3-ITD cell lines only | Estimated ratio of colony formation vs. DMSO [2]: 0.67 | effect on phosphorylated SYK (tyrosine 525/526) [3]: down-modulated SYK phosphorylation only in the FLT3-ITD cell lines | IC50 [4]: 651 nM and 415 nM and 456 nM | Estimated Ratio of proliferation versus vehicle (DMSO) ([5]; 0.005 µM): 1.02 | Estimated Ratio of proliferation versus vehicle (DMSO) ([5]; 0.01 µM): 1.05 | Estimated Ratio of proliferation versus vehicle (DMSO) ([5]; 0.05 µM): 1.06 | Estimated Ratio of proliferation versus vehicle (DMSO) ([5]; 0.1 µM): 1.02 | Estimated Ratio of proliferation versus vehicle (DMSO) ([5]; 0.5 µM): 0.99 | Estimated Ratio of proliferation versus vehicle (DMSO) ([5]; 1 µM): 0.87 | Estimated Ratio of proliferation versus vehicle (DMSO) ([5]; 5 µM): 0.78 | Estimated Ratio of proliferation versus vehicle (DMSO) ([5]; 10 µM): 0.56 | Estimated Ratio of proliferation versus vehicle (DMSO) ([5]; 50 µM): 0.54

CO[C@@H]1[C@H](N(C)C(=O)c2ccccc2)C[C@H]2O[C@]1(C)n1c3ccccc3c3c4c(c5c6ccccc6n2c5c31)C(=O)NC4 [Midostaurin, reference compound]
IC50 [6]: 95.4 nM and 63.3 nM | effect on phosphorylated SYK (tyrosine 525/526) [3]: down-modulated SYK phosphorylation only in the FLT3-ITD cell lines

c1cn2cc(-c3ccc4cn[nH]c4c3)nc(Nc3ccc(N4CCOCC4)cc3)c2n1 [entospletinib, Entospletinib, reference compound]
in vitro anti-proliferative activity [7]: potently inhibited proliferation

C=CC(=O)N1CCC[C@@H](n2nc(-c3ccc(Oc4ccccc4)cc3)c3c(N)ncnc32)C1 [ibrutinib, reference compound]
in vitro anti-proliferative activity [7]: only ARQ 531 demonstrated in vitro anti-proliferative activity | effect on BTK phosphorylation [8]: potently inhibit BTK phosphorylation

CC(C)(C)c1cc(NC(=O)Nc2ccc(-c3cn4c(n3)sc3cc(OCCN5CCOCC5)ccc34)cc2)no1 [quizartinib, Quizartinib]
effect on phosphorylated SYK (tyrosine 525/526) [3]: down-modulated SYK phosphorylation only in the FLT3-ITD cell lines

CC1(C)CCC(CN2CCN(c3ccc(C(=O)NS(=O)(=O)c4ccc(NCC5CCOCC5)c([N+](=O)[O-])c4)c(Oc4cnc5[nH]ccc5c4)c3)CC2)=C(c2ccc(Cl)cc2)C1 [venetoclax, reference compound]
survival [9]: 24 days
